Measured values from patent US20220273926A1, “DRUG DELIVERY USING MICRONEEDLE ARRAYS” (BOARD OF REGENTS OF THE UNIVERSITY OF NEBRASKA, priority 2019, published 2022).
Entries after “also recorded” stand apart in the source; their conditions may differ. Read-outs that look alike come from different tables or passages of the source.

How the values were obtained:
[1] = Drug adsorption to the bandage: solution perfused through the MNAs; assay type: physicochemical; conditions: perfusion through bandage and MNAs; BSA 54 ng/mL, cefazolin 16 μg/mL
Protocol: Once the system was characterized, the efficiency of the bandage in drug delivery was evaluated. Initially, the potential drug adsorption to the engineered bandage was to be tested. […] The solution was then collected at different time points after perfusion through the MNAs and the concentration of the drugs determined using a total protein assay (for BSA) and UV-Vis spectrophotometry (for cefazolin).
Drug Delivery Characterization: The potential protein and drug adsorption by the bandage, tubing, and MNAs were investigated by perfusing a solution with known concentrations of cefazolin salt and BSA. 150 μL of the delivered solution was collected at different time points and the concentrations of cefazolin and BSA were determined by measuring the solution absorbance for cefazolin and BCA protein assay kit for BSA.

[2] = after 180 min, target 20 μg/mL
Excerpt: The intradermal drug delivery kinetics were further evaluated by developing an in vitro model mimicking the structure of wounds in which eschar and granulation tissue separates the endothelial cells from the outside environment. This model, illustrated schematically in FIG. 2a, consisted of a cell culture insert with a porous membrane covered by agarose (3% w/v) with ˜2 mm thickness, and the bottom well represented the environment of endothelial cells.
Assessment of release kinetics: To mimic the chronic wound tissue, 12-well cell culture inserts were filled with 150 μL of 3% (w/v) agarose. […] Inserts were divided into 3 groups (4 replicate/group) with respect to the method of delivery, including topical, MNA, and LJI. To measure the concentration of the delivered solution, at each time point 100 μL was removed and then replaced with the same volume of fresh PBS. After collecting all samples, the concentration was measured by a plate reader (Cytation 5, BioTek) followed by data analysis to extract the related release graphs. In the case of BSA, measurement process was followed based on manufacturer's protocol.

[3] = Cefazolin release from thermo-responsive alginate/PNIPAM patch with heater; assay type: physicochemical; conditions: PNIPAM carriers in alginate patch, heat applied; over 1 h
Excerpt: To minimize the thermal contact resistance between the microheater and the hydrogel layer, the hydrogel was directly cast on top of the heater. Chronic wounds are known for their high rate of exudate generation and thus exudate management is important in the proper function of the sensors and drug delivery modules. The utilized alginate-based hydrogels are known for high water uptake and swelling ratios and have been used in engineering wet wound dressings. In addition, since the sensors are in direct contact with the skin, the swelling of the hydrogels is not expected to affect the readout. To visualize the drug release, rhodamine B was loaded into PNIPAM particles and the system was heated while being monitored under a microscope. […] After applying heat to the alginate patch, the cefazolin release profile was measured over time. […] To assess the possibility of releasing drugs in a dynamic fashion, heat was applied periodically (30 min on, 30 min off) and the drug release amount was determined. […]
Drug Release with Integrated Heaters: Alginate hydrogel with embedded drug microcarriers was attached on the surface of the microheater while 200 μL PBS was added into the plate and electrical voltage was applied to generate heat. The drug released into the solution was evaluated using plate reader.

keratinocytes = experiment: Scratch test assay on keratinocytes contaminated with S. aureus; assay type: cell-based, human; conditions: keratinocyte monolayer contaminated with S. aureus
Protocol: A standard scratch test assay was used to evaluate the cell migration in presence of bacteria. […] To perform this experiment, the scratch was created over a monolayer of the confluent keratinocytes, which were contaminated with S. aureus in advance. Three groups were used for this set of experiments: (1) cefazolin powder as a positive control, (2) alginate without antibiotic loading as a negative control, and (3) alginate containing cefazolin.
Keratinocytes (1×10^5) were seeded and cultured in a six-well plate and kept overnight to make a confluent monolayer overnight. The 1 mm wide gap scratch was then created onto the monolayer with a 200 μL pipette tip, and floating cells were removed by twice washing with PBS. After the line scratches, 2 mL of DMEM was added for each group. To detect the efficacy of treatments on cell migration, samples were continually imaged for 0, 8, 24, and 48 h. Images of the monolayer were taken by a microscope and cell migration activity was evaluated as the migration distance from the edges of the scratch toward the center of it using Image J software (NIH, Bethesda, Md., USA). For each well, ten images were taken and selected randomly. Experiments were done independently in triplicate.

Cc1nnc(SCC2=C(C(=O)O)N3C(=O)[C@@H](NC(=O)Cn4cnnn4)[C@H]3SC2)s1 [cefazolin]
temporal changes in the drug concentration within the perfused solution [1]: not statistically significant; also recorded: insignificant change in concentration | delivered into the bottom chamber (overall efficiency of delivery) ([2]; LJI): more than 90% | delivered into the bottom chamber (overall efficiency of delivery) ([2]; MNAs): ~65% | delivered into the bottom chamber (overall efficiency of delivery) ([2]; topical (TOP)): ~25% | drug released [3]: about 80% | cell migration in scratch assay (keratinocytes): rapid migration toward the opening area was observed
